US20210292333A1, “CONDENSED AZAHETEROARYL COMPOUNDS HAVING ANTIBACTERIAL ACTIVITY AGAINST TU[…]” (CADILA HEALTHCARE LIMITED, priority 2018, published 2021)
Converted amounts (≈) assume the structure as drawn.

What was measured:
[1] = tested on: Mycobacterium tuberculosis H37Rv; experiment: Minimum Inhibitory Concentration (MIC) determination, MABA assay; assay type: cell-based; conditions: 168 h, 7H9 medium, 7 days at 37° C., alamar blue, read-out: Mtb MIC
Protocol: To assess the bacterial growth inhibitory effect of the compounds of the invention, MABA assay was performed with log phase culture of Mycobacterium tuberculosis H37Rv. Bacterial culture of optical density 0.6-0.8 was diluted to final density of 0.02 in 7H9 medium. 100 μl of diluted Mycobacterium tuberculosis H37Rv was incubated with the test compounds in microtiter plate. A drug free control containing DMSO also was also prepared. Following incubation of the compound with culture for 7 days at 37° C., 20 μl of 0.02% alamar blue (freshly prepared) was added in each well. The color was allowed to develop for 16 h at 37° C. Blue color in the well indicated no growth whereas pink color signifies growth in the well. MIC value is defined as the lowest concentration that prevents the color change from blue to pink. Fluorescence was measured at excitation at 530 nm and emission at 590 nm.

[2] = Pharmacokinetics of the compounds in mice (IV and oral single dose); assay type: in vivo; conditions: mouse, plasma, Balb/c mice; for bioavailability: PO 3 mg/kg vs IV 1 mg/kg, read-out: F(%) absolute oral bioavailability; for AUC(0-t) / Cmax: single dose, Oral (PO) 3 mg/kg suspension, IV 1 mg/kg, route not given
Protocol: Balb/c mice were obtained from Zydus Research Centre, Ahmedabad India, AAALAC Accreditation. All animals were housed in temperature-control rooms with appropriate light/dark cycles. The animals were overnight fasted before oral gavage dosing but were given access to water ad libitum. Food was provided 4 h after dosing. All animal studies were conducted according to protocols reviewed and approved by the Institutional Animal Care and Ethics Committee at the Zydus Research Centre. Compounds were dosed as a solution in 10% NMP and 10% solutol in Normal Saline (Intravenous (IV), 1 mg/kg) and homogenous suspension (Oral (PO), 3 mg/kg) in 0.5% Tween 80 in 0.5% methyl cellulose as a single dose in mice. For mouse composite PK profile was generated. Blood samples were collected at 0.08 (IV only), 0.25, 0.5, 1, 2, 4, 6, 7.5, and 24 h post-dose in Na-heparin coated micro centrifuge tubes. Blood samples were centrifuged to separate plasma which were then stored at −70° C. until analysis. PK parameters were calculated by non-compartmental analysis using Phoenix (Pharsight Corp., Mountain View, Calif.). A model was selected based on the vascular (IV bolus) or extravascular (PO) routes of administration. For the PO route, concentration at time zero was assumed to be zero. Plasma concentrations below the limit of quantitation were treated as zero concentration for the purpose of calculating the mean plasma concentration values. Pharmacokinetic parameters such as maximum plasma concentration (Cmax), area under the curve of concentration over the time (AUC (0-t)) and absolute oral bioavailability (F (%)) of the selected compounds are shown in Table 3.

SMILES: COCCNC(=O)c1nn(Cc2ncnc(OC)c2C)c2cc(C)cnc12 [Example 10, 1-((6-methoxy-5-methylpyrimidin-4-yl)methyl)-N-(2-methoxyethyl)-6-methyl-1H-pyrazolo[4,3-b]pyridine-3-carboxamide]
- MIC [1]: 5 µM (≈ 1.85 µg/mL)
- bioavailability [2]: 100%
- AUC(0-t) [2]: 5130 ng·h/mL
- Cmax [2]: 4000 ng/mL

SMILES: COc1ncnc(Cn2nc(C(=O)NCC3(O)CC3)c3ncc(C)nc32)c1C [Example 14, N-((1-hydroxycyclopropyl)methyl)-1-((6-methoxy-5-methylpyrimidin-4-yl)methyl)-6-methyl-1H-pyrazolo[3,4-b]pyrazine-3-carboxamide]
- bioavailability [2]: 90%
- AUC(0-t) [2]: 1680 ng·h/mL
- Cmax [2]: 1600 ng/mL

SMILES: CCOc1ncnc(Cn2cc(C(=O)NCC3(O)CC3)c3ncc(C)nc32)c1C [Example 13, 5-((6-ethoxy-5-methylpyrimidin-4-yl)methyl)-N-((1-hydroxycyclopropyl)methyl)-3-methyl-5H-pyrrolo[2,3-b]pyrazine-7-carboxamide]
- MIC [1]: 0.25 µM (≈ 0.0991 µg/mL)
- bioavailability [2]: 100%
- AUC(0-t) [2]: 2150 ng·h/mL
- Cmax [2]: 1320 ng/mL

SMILES: COc1nc(C)ccc1Cn1nc(C(=O)NCC2(O)CC2)c2ncc(C)cc21 [Example 9, N-((1-hydroxycyclopropyl)methyl)-1-((2-methoxy-6-methylpyridin-3-yl)methyl)-6-methyl-1H-pyrazolo[4,3-b]pyridine-3-carboxamide]
- bioavailability [2]: 78%
- AUC(0-t) [2]: 2160 ng·h/mL
- Cmax [2]: 1570 ng/mL

SMILES: CCOc1ncnc(Cn2nc(C(=O)NCC3(O)CC3)c3ncc(C)cc32)c1C [Example 3, 1-((6-ethoxy-5-methylpyrimidin-4-yl)methyl)-N-((1-hydroxycyclopropyl)methyl)-6-methyl-1H-pyrazolo[4,3-b]pyridine-3-carboxamide]
- MIC [1]: ≤ 0.625 µM
- bioavailability [2]: 100%
- AUC(0-t) [2]: 2810 ng·h/mL
- Cmax [2]: 2720 ng/mL

SMILES: COc1ncnc(Cn2cc(C(=O)NCC3(O)CC3)c3ncc(C)nc32)c1C [Example 11, N-((1-hydroxycyclopropyl)methyl)-5-((6-methoxy-5-methylpyrimidin-4-yl)methyl)-3-methyl-5H-pyrrolo[2,3-b]pyrazine-7-carboxamide]
- MIC [1]: 0.5 µM (≈ 0.191 µg/mL)
- bioavailability [2]: 100%
- AUC(0-t) [2]: 2570 ng·h/mL
- Cmax [2]: 1660 ng/mL

SMILES: COc1cnc2c(C(=O)NCC3(O)CC3)cn(Cc3ncnc(OC)c3C)c2n1 [Example 12, N-((1-hydroxycyclopropyl)methyl)-3-methoxy-5-((6-methoxy-5-methylpyrimidin-4-yl)methyl)-5H-pyrrolo[2,3-b]pyrazine-7-carboxamide]
- MIC [1]: 0.25 µM (≈ 0.0996 µg/mL)
- bioavailability [2]: 100%
- AUC(0-t) [2]: 2920 ng·h/mL
- Cmax [2]: 1720 ng/mL

SMILES: COc1ncnc(Cn2cc(C(=O)NCC3(O)CC3)c3ncc(C)cc32)c1C [Example 85, N-((1-hydroxycyclopropyl)methyl)-1-((6-methoxy-5-methylpyrimidin-4-yl)methyl)-6-methyl-1H-pyrrolo[3,2-b]pyridine-3-carboxamide]
- MIC [1]: ≤ 0.0625 µM
- bioavailability [2]: 94%
- AUC(0-t) [2]: 2180 ng·h/mL
- Cmax [2]: 1470 ng/mL

SMILES: COc1ncnc(Cn2nc(C(=O)NCC3(O)CC3)c3ncc(C)cc32)c1C [Example 1, N-((1-hydroxycyclopropyl)methyl)-1-((6-methoxy-5-methylpyrimidin-4-yl)methyl)-6-methyl-1H-pyrazolo[4,3-b]pyridine-3-carboxamide]
- MIC [1]: 1.25 µM (≈ 0.478 µg/mL)
- bioavailability [2]: 100%
- AUC(0-t) [2]: 2850 ng·h/mL
- Cmax [2]: 1730 ng/mL
